# Measurements as given in article PMC6576746, “Rational discovery of dual-indication multi-target PDE/Kinase inhibitor for precision anti-cancer therapy using structural systems pharmacology” (PLoS Computational Biology, 2019).
# How the values were obtained:
# Assay in all cases: biochemical
# Parameters in all cases: DiscoverX KinomeScan competition binding assay across human kinases; per cent of control at 10 and 100 uM
# DRAK2 = target: T1, DRAK2 (Homo sapiens, UniProt O94768); conditions: competition binding, % of control
# T1 construct: gene STK17B
# T1 sequence (O94768 whole entry): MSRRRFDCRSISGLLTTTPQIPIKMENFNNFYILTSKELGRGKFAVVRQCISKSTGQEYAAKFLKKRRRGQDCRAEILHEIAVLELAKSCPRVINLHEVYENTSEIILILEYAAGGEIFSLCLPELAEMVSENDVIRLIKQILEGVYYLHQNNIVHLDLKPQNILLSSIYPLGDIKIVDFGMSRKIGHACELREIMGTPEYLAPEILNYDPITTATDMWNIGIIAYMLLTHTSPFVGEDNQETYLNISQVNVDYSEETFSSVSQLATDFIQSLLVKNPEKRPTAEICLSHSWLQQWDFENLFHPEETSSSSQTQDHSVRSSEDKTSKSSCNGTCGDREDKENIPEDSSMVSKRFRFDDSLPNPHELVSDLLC
# Summary of the method: (§1)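 KinomeScan competition binding was run across a human kinase panel at 10 μM and 100 μM levosimendan. Results are %control = (test − positive control)/(negative control − positive control) × 100.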
# [1] = target: T2, RSK1(Kin.Dom.1-N-terminal) (Homo sapiens, UniProt Q15418); conditions: competition binding, % of control; read-out: Percent Control (100 uM Levosimendan)
# T2 construct: gene RPS6KA1; Kin.Dom.1-N-terminal
# Summary of the method: as §1
# PRKCD = PRKCD (Homo sapiens, UniProt Q05655); conditions: competition binding, % of control
# Chain of PRKCD (Q05655 whole entry): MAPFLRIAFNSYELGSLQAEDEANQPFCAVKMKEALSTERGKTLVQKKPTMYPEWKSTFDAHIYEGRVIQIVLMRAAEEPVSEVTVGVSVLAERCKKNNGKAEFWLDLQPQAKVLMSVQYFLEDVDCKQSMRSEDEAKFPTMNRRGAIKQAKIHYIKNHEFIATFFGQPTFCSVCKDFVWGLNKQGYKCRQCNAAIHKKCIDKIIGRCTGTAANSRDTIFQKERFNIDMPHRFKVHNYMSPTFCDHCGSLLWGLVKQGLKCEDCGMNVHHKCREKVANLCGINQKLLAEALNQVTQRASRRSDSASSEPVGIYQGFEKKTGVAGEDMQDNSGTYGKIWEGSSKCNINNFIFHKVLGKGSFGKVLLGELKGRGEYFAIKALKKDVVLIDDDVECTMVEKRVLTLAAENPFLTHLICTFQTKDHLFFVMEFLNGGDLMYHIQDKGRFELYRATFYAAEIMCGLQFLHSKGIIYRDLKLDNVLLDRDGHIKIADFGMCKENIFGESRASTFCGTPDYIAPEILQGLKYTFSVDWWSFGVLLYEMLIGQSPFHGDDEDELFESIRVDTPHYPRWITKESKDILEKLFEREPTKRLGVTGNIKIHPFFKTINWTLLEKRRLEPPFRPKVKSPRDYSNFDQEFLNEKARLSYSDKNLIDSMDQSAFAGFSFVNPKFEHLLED
# Summary of the method: as §1
# GRK4 = GRK4 (Homo sapiens, UniProt P32298); conditions: competition binding, % of control; read-out: Percent Control (100 uM Levosimendan)
# Chain of GRK4 (P32298 whole entry): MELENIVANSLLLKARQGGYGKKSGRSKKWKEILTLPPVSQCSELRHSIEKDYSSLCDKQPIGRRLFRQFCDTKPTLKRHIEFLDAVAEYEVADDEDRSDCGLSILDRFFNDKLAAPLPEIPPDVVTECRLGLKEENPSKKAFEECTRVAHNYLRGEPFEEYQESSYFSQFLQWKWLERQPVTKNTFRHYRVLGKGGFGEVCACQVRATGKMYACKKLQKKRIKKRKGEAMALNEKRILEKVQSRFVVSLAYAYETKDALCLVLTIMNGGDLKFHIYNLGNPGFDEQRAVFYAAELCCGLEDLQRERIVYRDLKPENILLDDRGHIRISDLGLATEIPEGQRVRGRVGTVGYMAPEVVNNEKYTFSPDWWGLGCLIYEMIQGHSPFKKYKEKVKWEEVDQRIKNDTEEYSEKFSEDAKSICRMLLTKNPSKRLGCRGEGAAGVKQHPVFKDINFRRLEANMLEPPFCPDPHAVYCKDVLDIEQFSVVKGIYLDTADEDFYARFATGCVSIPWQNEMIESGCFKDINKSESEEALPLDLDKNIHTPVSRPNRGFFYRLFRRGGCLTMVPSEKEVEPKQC
# Summary of the method: as §1
# PIM1 = PIM1 (Homo sapiens, UniProt P11309); conditions: competition binding, % of control; read-out: Percent Control (100 uM Levosimendan)
# Chain of PIM1 (P11309 whole entry): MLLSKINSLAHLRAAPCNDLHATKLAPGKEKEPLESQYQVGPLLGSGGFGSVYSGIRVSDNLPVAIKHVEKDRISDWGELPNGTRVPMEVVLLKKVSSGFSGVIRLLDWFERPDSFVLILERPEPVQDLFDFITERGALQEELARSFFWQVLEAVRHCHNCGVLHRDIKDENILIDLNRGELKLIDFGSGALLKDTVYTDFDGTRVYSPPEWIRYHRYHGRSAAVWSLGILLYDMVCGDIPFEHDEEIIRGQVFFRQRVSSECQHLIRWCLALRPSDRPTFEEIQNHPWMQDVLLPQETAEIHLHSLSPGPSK
# Summary of the method: as §1
# LYN = LYN (Homo sapiens, UniProt P07948); conditions: competition binding, % of control; read-out: Percent Control (100 uM Levosimendan)
# Chain of LYN (P07948 whole entry): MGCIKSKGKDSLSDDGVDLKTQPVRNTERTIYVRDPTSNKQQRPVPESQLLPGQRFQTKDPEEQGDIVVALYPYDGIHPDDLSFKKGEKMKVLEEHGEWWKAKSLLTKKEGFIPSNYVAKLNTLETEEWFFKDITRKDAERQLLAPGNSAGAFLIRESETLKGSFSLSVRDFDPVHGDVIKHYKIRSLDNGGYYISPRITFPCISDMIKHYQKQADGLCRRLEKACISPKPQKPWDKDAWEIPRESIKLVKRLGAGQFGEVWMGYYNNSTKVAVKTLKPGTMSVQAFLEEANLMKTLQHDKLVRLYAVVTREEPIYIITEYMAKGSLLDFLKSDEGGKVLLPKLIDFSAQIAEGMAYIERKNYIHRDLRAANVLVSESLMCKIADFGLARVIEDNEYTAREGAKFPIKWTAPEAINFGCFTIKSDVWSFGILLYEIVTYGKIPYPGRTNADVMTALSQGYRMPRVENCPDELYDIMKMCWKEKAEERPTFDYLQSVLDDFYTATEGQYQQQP
# Summary of the method: as §1
# PRKD1 = PRKD1 (Homo sapiens, UniProt Q15139); conditions: competition binding, % of control; read-out: Percent Control (100 uM Levosimendan)
# Summary of the method: as §1
# CAMKK1 = CAMKK1 (Homo sapiens, UniProt Q8N5S9); conditions: competition binding, % of control
# Chain of CAMKK1 (Q8N5S9 whole entry): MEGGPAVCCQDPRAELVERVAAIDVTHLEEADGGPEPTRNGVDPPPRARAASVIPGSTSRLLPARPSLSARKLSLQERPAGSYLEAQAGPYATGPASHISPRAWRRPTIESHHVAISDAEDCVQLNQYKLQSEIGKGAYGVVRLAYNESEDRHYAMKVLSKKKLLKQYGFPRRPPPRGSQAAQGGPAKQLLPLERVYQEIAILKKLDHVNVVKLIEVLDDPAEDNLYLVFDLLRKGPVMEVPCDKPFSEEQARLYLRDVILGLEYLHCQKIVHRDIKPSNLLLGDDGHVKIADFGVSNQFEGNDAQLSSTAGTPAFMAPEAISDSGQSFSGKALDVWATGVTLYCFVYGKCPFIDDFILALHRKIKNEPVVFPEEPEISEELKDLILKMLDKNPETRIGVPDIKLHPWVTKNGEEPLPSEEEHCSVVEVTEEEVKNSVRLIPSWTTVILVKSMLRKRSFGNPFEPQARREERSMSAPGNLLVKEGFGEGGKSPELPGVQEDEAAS
# Summary of the method: as §1
# LZK = target: T3, LZK (Homo sapiens, UniProt O43283); conditions: competition binding, % of control; read-out: Percent Control (100 uM Levosimendan)
# T3 construct: gene MAP3K13
# Summary of the method: as §1
# MST1R = MST1R (Homo sapiens, UniProt Q04912); conditions: competition binding, % of control; read-out: Percent Control (100 uM Levosimendan)
# Summary of the method: as §1
# TLK2 = TLK2 (Homo sapiens, UniProt Q86UE8); conditions: competition binding, % of control; read-out: Percent Control (100 uM Levosimendan)
# Chain of TLK2 (Q86UE8 whole entry): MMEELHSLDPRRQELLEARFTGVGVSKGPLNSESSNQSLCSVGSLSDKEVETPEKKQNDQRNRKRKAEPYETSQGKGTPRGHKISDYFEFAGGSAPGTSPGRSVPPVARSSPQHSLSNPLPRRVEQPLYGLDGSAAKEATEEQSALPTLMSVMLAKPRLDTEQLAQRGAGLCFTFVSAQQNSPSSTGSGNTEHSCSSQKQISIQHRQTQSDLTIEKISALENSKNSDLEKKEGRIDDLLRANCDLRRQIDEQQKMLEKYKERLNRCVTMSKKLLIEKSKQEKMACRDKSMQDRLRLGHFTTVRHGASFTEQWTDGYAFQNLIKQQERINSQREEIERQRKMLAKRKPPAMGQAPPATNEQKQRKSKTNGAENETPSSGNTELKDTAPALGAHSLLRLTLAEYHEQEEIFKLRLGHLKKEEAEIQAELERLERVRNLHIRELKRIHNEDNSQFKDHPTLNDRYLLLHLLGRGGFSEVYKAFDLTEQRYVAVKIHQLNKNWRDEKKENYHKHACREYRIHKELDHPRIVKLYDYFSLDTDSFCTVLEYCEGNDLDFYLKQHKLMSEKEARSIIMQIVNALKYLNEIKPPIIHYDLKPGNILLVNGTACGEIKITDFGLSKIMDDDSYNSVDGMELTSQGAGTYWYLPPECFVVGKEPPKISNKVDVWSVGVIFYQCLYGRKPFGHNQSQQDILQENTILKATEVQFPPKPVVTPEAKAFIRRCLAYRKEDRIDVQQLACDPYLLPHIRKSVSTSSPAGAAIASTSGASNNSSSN
# Summary of the method: as §1
# NDR2 = target: T4, NDR2 (Homo sapiens, UniProt Q9Y2H1); conditions: competition binding, % of control; read-out: Percent Control (100 uM Levosimendan)
# T4 construct: gene STK38L
# Summary of the method: as §1
# JNK3 = target: T5, JNK3 (Homo sapiens, UniProt P53779); conditions: competition binding, % of control; read-out: Percent Control (100 uM Levosimendan)
# T5 construct: gene MAPK10
# Summary of the method: as §1
# PRKCH = PRKCH (Homo sapiens, UniProt P24723); conditions: competition binding, % of control; read-out: Percent Control (100 uM Levosimendan)
# Summary of the method: as §1
# [2] = target: T6, JAK1(JH2domain-pseudokinase) (Homo sapiens, UniProt P23458); conditions: competition binding, % of control
# T6 construct: JH2domain-pseudokinase
# T6 sequence (P23458 whole entry): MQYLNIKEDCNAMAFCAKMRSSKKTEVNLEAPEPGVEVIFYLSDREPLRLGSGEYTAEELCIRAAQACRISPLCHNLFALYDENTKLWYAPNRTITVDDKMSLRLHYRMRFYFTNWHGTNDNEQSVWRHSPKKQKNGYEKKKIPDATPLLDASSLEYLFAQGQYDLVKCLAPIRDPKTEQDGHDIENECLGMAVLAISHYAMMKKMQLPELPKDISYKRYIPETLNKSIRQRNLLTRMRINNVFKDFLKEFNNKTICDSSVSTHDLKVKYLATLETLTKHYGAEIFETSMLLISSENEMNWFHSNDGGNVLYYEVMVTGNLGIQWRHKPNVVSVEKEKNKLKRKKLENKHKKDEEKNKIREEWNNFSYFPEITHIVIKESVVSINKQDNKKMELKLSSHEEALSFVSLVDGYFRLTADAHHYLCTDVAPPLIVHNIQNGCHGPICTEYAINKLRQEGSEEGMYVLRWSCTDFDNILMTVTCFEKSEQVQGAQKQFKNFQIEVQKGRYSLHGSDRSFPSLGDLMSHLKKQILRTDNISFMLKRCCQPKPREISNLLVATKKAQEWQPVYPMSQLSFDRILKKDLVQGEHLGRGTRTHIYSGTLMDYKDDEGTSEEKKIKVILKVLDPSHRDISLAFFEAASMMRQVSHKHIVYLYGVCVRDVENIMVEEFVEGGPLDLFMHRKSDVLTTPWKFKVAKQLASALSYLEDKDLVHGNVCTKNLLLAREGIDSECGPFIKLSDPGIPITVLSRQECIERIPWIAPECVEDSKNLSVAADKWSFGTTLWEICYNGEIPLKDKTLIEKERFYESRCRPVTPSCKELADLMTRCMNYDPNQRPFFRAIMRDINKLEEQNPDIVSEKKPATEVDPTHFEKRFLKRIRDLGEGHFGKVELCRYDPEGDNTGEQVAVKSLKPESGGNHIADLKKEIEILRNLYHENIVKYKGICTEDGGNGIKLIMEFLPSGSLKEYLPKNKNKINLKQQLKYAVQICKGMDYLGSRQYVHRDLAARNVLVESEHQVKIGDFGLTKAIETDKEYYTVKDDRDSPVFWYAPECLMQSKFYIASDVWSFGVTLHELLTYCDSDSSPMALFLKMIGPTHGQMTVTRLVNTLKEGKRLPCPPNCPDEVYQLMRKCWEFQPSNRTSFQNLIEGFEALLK
# Summary of the method: as §1
# WNK1 = WNK1 (Homo sapiens, UniProt Q9H4A3); conditions: competition binding, % of control; read-out: Percent Control (100 uM Levosimendan)
# Summary of the method: as §1
# [3] = target: T7, ABL1(Y253F)-phosphorylated (Homo sapiens, UniProt P00519, Y253F); conditions: competition binding, % of control; read-out: Percent Control (100 uM Levosimendan)
# T7 construct: phosphorylated
# Summary of the method: as §1
# TLK1 = TLK1 (Homo sapiens, UniProt Q9UKI8); conditions: competition binding, % of control; read-out: Percent Control (100 uM Levosimendan)
# Summary of the method: as §1
# FGFR3 = FGFR3 (Homo sapiens, UniProt P22607); conditions: competition binding, % of control; read-out: Percent Control (100 uM Levosimendan)
# Summary of the method: as §1
# [4] = read-out: Percent Control (10 uM Levosimendan)
# [5] = read-out: Percent Control (100 uM Levosimendan)
smiles,measurement,setting,value
C[C@@H]1CC(=O)NN=C1c1ccc(NN=C(C#N)C#N)cc1 [levosimendan],remaining binding at 10 µM,DRAK2; [4],99%
same,remaining binding at 100 µM,DRAK2; [5],20%
same,remaining binding at 100 µM,[1],84%
same,remaining binding at 10 µM,PRKCD; [4],93%
same,remaining binding at 100 µM,PRKCD; [5],48%
same,remaining binding at 100 µM,GRK4,100%
same,remaining binding at 100 µM,PIM1,64%
same,remaining binding at 100 µM,LYN,69%
same,remaining binding at 100 µM,PRKD1,96%
same,remaining binding at 10 µM,CAMKK1; [4],82%
same,remaining binding at 100 µM,CAMKK1; [5],51%
same,remaining binding at 100 µM,LZK,100%
same,remaining binding at 100 µM,MST1R,87%
same,remaining binding at 100 µM,TLK2,97%
same,remaining binding at 100 µM,NDR2,96%
same,remaining binding at 100 µM,JNK3,99%
same,remaining binding at 100 µM,PRKCH,69%
same,remaining binding at 10 µM,[2]; [4],30%
same,remaining binding at 100 µM,[2]; [5],7.2%
same,remaining binding at 100 µM,WNK1,100%
same,remaining binding at 100 µM,[3],87%
same,remaining binding at 100 µM,TLK1,100%
same,remaining binding at 100 µM,FGFR3,71%
